The text below walks through data of US12110278B2, “Selective JAK2 pseudokinase ligands and methods of use” (YALE UNIVERSITY, priority 2020, dated 2024).

Chain of JAK2 JH2 (O60674 536-812 W659A/W777A/F794H): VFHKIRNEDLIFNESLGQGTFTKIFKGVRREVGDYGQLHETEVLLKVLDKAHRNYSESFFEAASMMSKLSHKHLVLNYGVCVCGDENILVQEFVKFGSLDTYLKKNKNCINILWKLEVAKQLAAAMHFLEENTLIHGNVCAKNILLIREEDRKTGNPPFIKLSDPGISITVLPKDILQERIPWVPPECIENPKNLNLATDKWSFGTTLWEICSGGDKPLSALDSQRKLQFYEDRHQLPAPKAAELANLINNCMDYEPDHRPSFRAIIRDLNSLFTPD
Chain of JAK2 JH2 V617F mutant (O60674 545-809 V617F): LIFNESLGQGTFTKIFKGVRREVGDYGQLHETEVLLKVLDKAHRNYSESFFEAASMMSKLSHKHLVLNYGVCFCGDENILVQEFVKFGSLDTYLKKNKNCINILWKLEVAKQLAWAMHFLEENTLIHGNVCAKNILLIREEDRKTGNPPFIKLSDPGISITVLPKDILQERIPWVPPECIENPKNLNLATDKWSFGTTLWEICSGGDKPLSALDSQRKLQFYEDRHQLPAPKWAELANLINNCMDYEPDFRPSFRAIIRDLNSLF

The first data set addresses JAK2 JH2 (Homo sapiens (Human), UniProt O60674). Put plainly: Competitive fluorescence polarization (FP) assay, JAK2 JH2. The following applies: read-out: Binding Affinity for JAK2 JH2 (Kd) from the FP Assay; wild-type JH2, FP, pH 8.0; mean ± SEM.
Description: In a flat black bottom 96 well plate (Corning), the buffer (20 mM Tris-HCl pH 8.0, 150 mM NaCl, 20% Glycerol, 0.5 mM TCEP, 0.01% Tween 20) is added—200 μL to column 1 (blank), 295 μL to column 2, 150 μL to columns 3-12. […] 150 μL was transferred, using a multichannel pipette, from column 2 to 3, 3 to 4, 4 to 5, until reaching the last column to make a serial dilutions (1:2). […] Experiments were carried out by quadruplicates in three independent experiments. The data provided a typical saturation-binding curve and Kd was calculated fitting the results to the Hill equation using Prism 7.
In a flat black bottom 96 well plate (Corning), 200 μL of FP buffer were added to column 1 (blank), 150 μL to column 2, and 140 μL to columns 3-12. […] 2 μL of inhibitor in DMSO at different concentrations were added from column 4 to 12. […] Experiments were carried out by quadruplicates in three independent experiments. Data were analyzed by a least-squares non-linear fit, generated using Prism 7 in order to determine the compound's IC50. Kd values for each inhibitor are calculated using the following equation based on the IC50, Kd of the tracer (Kd^t), total (Lt) and bound (Lb) tracer, as well as total protein concentration (Pt)^13
For `Nc1nc(Nc2ccc(S(N)(=O)=O)cc2)nn1C(=O)Nc1cccnc1` [Compound 7, 5-amino-N-(pyridin-3-yl)-3((4-sulfamoylphenyl)amino)-1H-1,2,4-triazole-1-carboxamide], the Kd came to 12.3 µM.
As for `Nc1nc(Nc2ccc(S(N)(=O)=O)cc2)nn1C(=O)Nc1ccc(-c2nnc(C(=O)O)o2)cc1` [Compound 14, 5-(4-(5-amino-3((4-sulfamoylphenyl)amino)-1H-1,2,4-triazole-1-carboxamido)phenyl)-1,3,4-oxadiazole-2-carboxylic acid], the Kd is 7 ± 0.1 µM.
Take `Nc1nc(Nc2ccc(S(N)(=O)=O)cc2)nn1C(=O)Nc1ccccn1` [Compound 6]: the Kd was 30.5 ± 3.6 µM.
On the same count and under the same terms, under `Nc1nc(Nc2ccc(S(N)(=O)=O)cc2)nn1C(=O)Nc1ccccc1` [Compound 4] stands 4.7 µM; under `CN(C(=O)n1nc(Nc2ccc(S(N)(=O)=O)cc2)nc1N)c1ccccc1` [Compound 5, 5-amino-N-methyl-N-phenyl-3-((4-sulfamoylphenyl)amino)-1H-1,2,4-triazole-1-carboxamide], 47.8 ± 9.2 µM.
On to `Nc1nc(Nc2ccc(S(N)(=O)=O)cc2)nn1Cc1c(F)cccc1F` [Compound 2, 4-((5-amino-1-(2,6-difluorobenzyl)-1H-1,2,4-triazol-3-yl)amino)benzenesulfonamide], for which the Kd was determined as 16.7 µM.
Take `Nc1nc(Nc2ccc(S(N)(=O)=O)cc2)nn1C(=O)Nc1ccc(-c2ccc(C(=O)O)o2)cc1` [Compound 13, 5-(4-(5-amino-3((4-sulfamoylphenyl)amino)-1H-1,2,4-triazole-1-carboxamido)phenyl)furan-2-carboxylic acid]: the Kd turned out to be 0.439 ± 0.064 µM.
As for `N#Cc1ccc(Nc2nc(N)n(C(=O)Nc3cccc(OCC(=O)O)c3)n2)cc1` [Compound 11, 2-(3-(5-amino-3((4-cyanophenyl)amino)-1H-1,2,4-triazole-1-carboxamido)phenoxy)acetic acid], the Kd amounted to 4 µM.

For a further data set, the target named is WT JAK2 JH2 (Homo sapiens (Human), UniProt O60674).
Chain of WT JAK2 JH2 (O60674 545-809): as the sequence (O60674 545-809 V617F) above, with F73V counted along it
Assay: not given
The following applies: read-out: Binding constant with WT JAK2 JH2; cited from earlier work.
Consider `Nc1ncnc2c1ncn2[C@@H]1O[C@H](COP(=O)(O)OP(=O)(O)OP(=O)(O)O)[C@@H](O)[C@H]1O` [ATP], for which the Kd was 1.3 µM.

A further data set addresses JAK2 JH2 V617F mutant (Homo sapiens (Human), UniProt O60674, V617F).
Assay: not given
The following applies: cited from earlier work.
Consider `Nc1ncnc2c1ncn2[C@@H]1O[C@H](COP(=O)(O)OP(=O)(O)OP(=O)(O)O)[C@@H](O)[C@H]1O` [ATP], for which the Kd was 1.3 µM.

Test system in another data set: not given
Assay: not given
The following applies: cited from earlier work.
As to `c1cocn1` [oxazole], the “octanol/water log P” value is recorded as 0.12.
For `c1ccoc1` [furan], the “octanol/water log P” value is listed as 1.34.
On to `c1cscn1` [thiazole], for which the “octanol/water log P” value is given as 0.44.
For `c1ccsc1` [thiophene], the “octanol/water log P” value is 1.81.
